Results: PubChem BioAssay AID330 (DTP/NCI, 2004)
“And” between values parts separate entries of the source, which are not always exact repeats. Identical values can stand only once. Toxic doses and inconclusive results are not listed.

System: P388 leukemia ip, CD2F1 mice, survival T/C
Assay: NCI In Vivo Anticancer Drug Screen. Data for tumor model P388 Leukemia (intraperitoneal) in CD2F1 (CDF1) mice
Settings: endpoint: median survival time, higher = longer survival
Procedure, shortened: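 Mice carrying the transplanted tumor received test compound or vehicle. Survival was recorded in each group, and the value is the treated-group measurement divided by that of the vehicle-treated control group.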

[1] = dose: 50.0 mg/kg/injection, schedule: Q01DX005 (ip), vehicle: saline with Tween-80
[2] = dose: 100.0 mg/kg/injection, schedule: Q01DX005 (ip), vehicle: saline with Tween-80
[3] = dose: 200.0 mg/kg/injection, schedule: Q01DX005 (ip), vehicle: saline with Tween-80
[4] = dose: 50.0 mg/kg/injection, schedule: Q01DX009 (ip), vehicle: Klucel (hydroxypropylcellulose) (HPC)
[5] = dose: 100.0 mg/kg/injection, schedule: Q01DX009 (ip), vehicle: Klucel (hydroxypropylcellulose) (HPC)
[6] = dose: 200.0 mg/kg/injection, schedule: Q01DX009 (ip), vehicle: Klucel (hydroxypropylcellulose) (HPC)

In the case of `Cc1cc(O)c(N=Nc2ccc(C(=O)O)cc2)cc1C`, the T/C (dose: 100.0 mg/kg/injection, schedule: Q01DX009 (ip), vehicle: saline with Tween-80) was 100 % of control, the T/C (dose: 100.0 mg/kg/injection, schedule: Q04DX003 (ip), vehicle: saline with Tween-80) was 90 % of control and the T/C (dose: 200.0 mg/kg/injection, schedule: Q01DX009 (ip), vehicle: saline with Tween-80) was 95 % of control. The T/C (dose: 400.0 mg/kg/injection, schedule: Q01DX009 (ip), vehicle: saline with Tween-80) was 95 % of control and the T/C (dose: 400.0 mg/kg/injection, schedule: Q04DX003 (ip), vehicle: saline with Tween-80) was 90 % of control.

With `CN(C)c1ccc2c(c1)C(=O)N(OS(=O)(=O)c1ccccc1)C2=O` the T/C [1] was 100 % of control, the T/C [2] was 103 % of control and the T/C [3] was 96 % of control.

`Cc1cc2ccccc2nc1-c1ccncc1` was tested, and the T/C (dose: 25.0 mg/kg/injection, schedule: Q04DX002 (ip), vehicle: Klucel (hydroxypropylcellulose) (HPC)) was 96 % of control, the T/C (dose: 50.0 mg/kg/injection, schedule: Q04DX002 (ip), vehicle: Klucel (hydroxypropylcellulose) (HPC)) was 96 % of control and the T/C (dose: 100.0 mg/kg/injection, schedule: Q04DX002 (ip), vehicle: Klucel (hydroxypropylcellulose) (HPC)) was 101 % of control. The T/C (dose: 200.0 mg/kg/injection, schedule: Q04DX002 (ip), vehicle: Klucel (hydroxypropylcellulose) (HPC)) was 103 % of control.

In the case of `C/C=C1/CN2C3CC45c6ccccc6N(C)C4C2CC1C3C5O` (stereo not drawn), the T/C [1] was 98 % of control and the T/C [2] was 97 % of control.

For `O=S(=O)(OCCCl)c1c(F)c(F)c(F)c(F)c1F`, the T/C (dose: 3.12 mg/kg/injection, schedule: Q01DX009 (ip), vehicle: saline with Tween-80) was 103 % of control, the T/C (dose: 6.25 mg/kg/injection, schedule: Q01DX009 (ip), vehicle: saline with Tween-80) was 109 % of control and the T/C (dose: 12.5 mg/kg/injection, schedule: Q01DX009 (ip), vehicle: saline with Tween-80) was 110 % of control.

In the case of `Cn1c(=O)c2nc(-c3ccccc3)cnc2n(C)c1=O`, the T/C (dose: 100.0 mg/kg/injection, schedule: Q01DX001 (ip), vehicle: saline) was 99 % of control, the T/C (dose: 200.0 mg/kg/injection, schedule: Q01DX001 (ip), vehicle: saline) was 96 % of control and the T/C (dose: 400.0 mg/kg/injection, schedule: Q01DX001 (ip), vehicle: saline) was 111 % of control.

For `CCC(C(=O)c1ccccc1)C1(C(=O)OC)NC(=S)NC(=O)C1C#N` (stereo not drawn), the T/C (dose: 60.0 mg/kg/injection, schedule: Q01DX005 (ip), vehicle: saline) was 95 % of control, the T/C (dose: 120.0 mg/kg/injection, schedule: Q01DX005 (ip), vehicle: saline) was 95 % of control and the T/C (dose: 240.0 mg/kg/injection, schedule: Q01DX005 (ip), vehicle: saline) was 100 % of control.

In the case of `Nc1c(Br)cc(Br)c2c1C(=O)c1ccccc1-2`, the T/C [1] was 98 % of control, the T/C [2] was 91 % of control and the T/C [3] was 96 % of control.

`OB(O)c1ccc(B(O)O)cc1` was tested, and the T/C [4] was 104 % of control, the T/C [5] was 103 % of control and the T/C [6] was 95 % of control. For the same molecule, the T/C (dose: 400.0 mg/kg/injection, schedule: Q01DX009 (ip), vehicle: Klucel (hydroxypropylcellulose) (HPC)) was 104 % of control.

With `CC1(C)C(C#N)C(=O)NC(=O)C1C#N` (stereo not drawn) the T/C (dose: 12.5 mg/kg/injection, schedule: Q01DX009 (ip), vehicle: water) was 97 % of control, the T/C (dose: 25.0 mg/kg/injection, schedule: Q01DX009 (ip), vehicle: water) was 95 % of control and the T/C (dose: 50.0 mg/kg/injection, schedule: Q01DX009 (ip), vehicle: water) was 93 % of control. The T/C (dose: 100.0 mg/kg/injection, schedule: Q01DX009 (ip), vehicle: water) was 104 % of control and the T/C (dose: 200.0 mg/kg/injection, schedule: Q01DX009 (ip), vehicle: water) was 101 % of control.

In the case of `O=[N+]([O-])c1ccc(-c2csc(NCC3CCCO3)n2)cc1` (stereo not drawn), the T/C [4] was 101 % of control, the T/C [5] was 100 % of control and the T/C [6] was 100 % of control.

In the case of `CCCCNC(C)C1(O)Cc2c(O)c3c(c(O)c2C(OC2CC(N)C(O)C(C)O2)C1)C(=O)c1c(OC)cccc1C3=O` (stereo not drawn), the T/C (dose: 0.62 mg/kg/injection, schedule: Q01DX009 (ip), vehicle: water) was 111 % of control, the T/C (dose: 10.0 mg/kg/injection, schedule: Q01DX009 (ip), vehicle: water) was 158 % of control and 161 % of control and the T/C (dose: 20.0 mg/kg/injection, schedule: Q01DX009 (ip), vehicle: water) was 172 % of control and 181 % of control. For the same molecule, the T/C (dose: 40.0 mg/kg/injection, schedule: Q01DX009 (ip), vehicle: water) was 224 % of control and the T/C (dose: 80.0 mg/kg/injection, schedule: Q01DX009 (ip), vehicle: water) was 218 % of control.
